The values below come from PMC12078333, “Pharmacokinetic evaluation and bioavailability of KPT-335 (Verdinexor) in cats” (Frontiers in Veterinary Science, 2025).

For data set [1] the following is noted: cited from earlier work.
Data set [2] is described as follows: Adverse reaction assessment in test cats (body weight, behavior, coat gloss). The format is in vivo. Conditions: all tested cats, i.v. 1 mg/kg BW and p.o. 0.2–2 mg/kg BW, single dose. Here is the method:
In this study, a parallel trial design was employed, 42 adult domestic cats (21 males and 21 females), aged 1 to 2 years and weighing 2.5 ± 0.25 kg. Cats were grouped by random number, with half male and female in each group, and all cats were determined to be systemically healthy during an initial screening visit 1 week prior to the experiment. They were acclimatized to the laboratory environment for 7 days before the study commenced. During this period, they were kept in solitary cages with free access to water. Cats in the fasting group were deprived of food for 12 h prior to and 2 h following drug administration, while those in the feeding group were fed twice a day. Food and water sources were consistent throughout the trail. During and at the end of the experiment, we systematically assessed the adverse reactions by recording parameters such as body weight, behavior, and coat gloss in all test cats both before and after the trial. These observations were conducted to evaluate whether any adverse reactions occurred. All procedures were reviewed and approved by the Institutional Animal Care and Use Committee of China Agricultural University (11305-23-E-002).

Data set [3] is described as follows: Solubility of KPT-335 (pH dependence, unpublished data). The data set is classed as physicochemical.
A short description of data set [4]: pKa (unpublished data). The data set is classed as physicochemical. Conditions: weak base.
The conditions of data set [5]: cat, in vivo. As to the method: Based on the dose administered in dogs, the selection of dosages for evaluating KPT-335 in cats was calculated using the Km factor, which adjusts drug doses across species based on body surface area (BSA) ([16]). […] For oral (p.o.) administration, single doses of 1 mg/kg BW and 2 mg/kg BW were tested across two groups. Additionally, an oral capsule group was administered at 0.2 mg/kg BW. […] The maximum safe dosage for dogs was determined to be 1.75 mg/kg BW, based on dosage conversion, the maximum safe dosage for cats was determined to be 2.33 mg/kg BW. Thus, we categorized the dosages as follows: 2 mg/kg BW was designated as the oral high-dose group, 1 mg/kg BW as the oral medium-dose group, and 0.2 mg/kg BW (1/10 of the recommended dose) as the oral low-dose group. These doses were determined based on the maximum safe dose in dogs and the solubility limitations of the drug. The smallest commercially available tablet contained 2.5 mg of KPT-335 and could not be divided, which meant that only whole tablets could be administered. Consequently, the 0.2 mg/kg BW dose could not be accurately achieved and was excluded from the tablet group trials. Only the 1 mg/kg BW and 2 mg/kg BW doses were included in the tablet groups. […]

The conditions of data set [6]: dogs; cited from earlier work.
Setting [7] is: dogs, orally 1.25 mg/kg BW (n = 4) ref 13.
The mark [8] stands for this setting: dogs, orally 1.5 mg/kg BW (n = 4) ref 13.
[9] abbreviates: healthy dogs, phase I study, 1.5 mg/kg BW ref 9.

Like-named read-outs stand apart in the source and are kept apart here.

In general, Cmax refers to the maximum level reached in the sampled fluid or tissue. As a reminder, the pKa is the negative logarithm of the acid dissociation constant. Consider `O=C(/C=C\n1cnc(-c2cc(C(F)(F)F)cc(C(F)(F)F)c2)n1)NNc1ccccn1` [KPT-335], for which, in data set [1] (dogs, 1.5 mg/kg BW ref 9, 13), the AUClast is 1800–2,300 h·ng/mL, the Cmax is 0.25 to 0.31 µg/mL and the half-life result is “approximately 4 h”. Further, in data set [1] (setting [7]), the “mean AUC” value is 1.5766 µg·h/mL and the “mean Cmax” value is 0.2448 µg/mL. In addition, in data set [1] (setting [8]), the “mean AUC” value was 2.3468 µg·h/mL and the “mean Cmax” value was 0.312 µg/mL. Also, in data set [1] (setting [9]), the AUClast was 1760 ± 223 ng·h/mL, the Cmax was 0.253 ± 0.0883 µg/mL and the T1/2 is recorded as 3.88 ± 2.71 h. In addition, in data set [2], the adverse reactions entry is “no adverse reactions”. For the same molecule, the aqueous solubility result in data set [3] was “low aqueous solubility”. The “lower solubility at pH 3.8 versus pH 1.5” value in data set [3] (unpublished data) was 50 fold. For the same molecule, the pKa in data set [4] is 10.6. Further, the maximum safe dosage in data set [5] came to 2.33 mg/kg BW. Further, the maximum safe dosage in data set [6] was 1.75 mg/kg BW.
